According to EP4431512A1, “NOVEL DUAL NK-1/NK-3 RECEPTOR ANTAGONISTS” (Bayer Consumer Care AG, priority 2023, dated 2024):

Columns and labels:
Human NK3 receptor [1] = target: T1, Human NK3 receptor (Homo sapiens, UniProt P29371); assay: NK3 receptor binding assay (antagonist radioligand, scintillation counting); design: expressed in transfected cells; host or cells: CHO cells (membrane preparations); details: for binding affinities: result in words, human NK3 receptors; for nH: NK3(h) (antagonist radioligand), Hill coefficient of competition curve
T1 sequence (P29371 1-465): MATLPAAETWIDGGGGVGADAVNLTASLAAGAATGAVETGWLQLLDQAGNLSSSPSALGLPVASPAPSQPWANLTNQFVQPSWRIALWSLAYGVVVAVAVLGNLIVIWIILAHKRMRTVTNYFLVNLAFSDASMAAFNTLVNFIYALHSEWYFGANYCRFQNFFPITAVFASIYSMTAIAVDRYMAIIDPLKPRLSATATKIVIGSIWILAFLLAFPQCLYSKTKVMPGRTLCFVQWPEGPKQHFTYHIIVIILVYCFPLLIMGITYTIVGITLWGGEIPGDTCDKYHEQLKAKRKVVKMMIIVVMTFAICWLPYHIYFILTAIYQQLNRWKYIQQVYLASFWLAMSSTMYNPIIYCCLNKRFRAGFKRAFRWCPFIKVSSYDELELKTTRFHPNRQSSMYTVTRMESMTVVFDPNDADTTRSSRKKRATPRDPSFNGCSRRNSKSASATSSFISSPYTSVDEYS
Experimental: Compound binding was calculated as a %-inhibition of the binding of a radioactively labeled ligand specific for each target.
NK3 receptor binding affinities of the compounds of the invention were determined by an scintillation counting and using membrane preparations of CHO cells recombinantly expressing human NK3 receptors (as described by Sarau, H.M. et al. (1997), J. Pharmacol. Exp. Ther., 281: 1303-1311).
The results are expressed as a percent of control specific binding (measured specific binding)/(control specific binding)*100 [formula] and as a percent inhibition of control specific binding 100−((measured specific binding)/(control specific binding)*100) [formula] obtained in the presence of the test compounds.
The IC50 values (concentration causing a half-maximal inhibition of control specific binding) and Hill coefficients (nH) were determined by non-linear regression analysis of the competition curves generated with mean replicate values using Hill equation curve fitting Y = D + [(A−D)/(1 + ((C/C50))^nH)] [formula] where Y = specific binding, A = left asymptote of the curve, D = right asymptote of the curve, C = compound concentration, C50 =IC50, and nH = slope factor. This analysis was performed using software developed at Cerep (Hill software) and validated by comparison with data generated by the commercial software SigmaPlot® 4.0 for Windows® (^© 1997 by SPSS Inc.).
The inhibition constants (Ki) were calculated using the Cheng Prusoff equation Ki = (IC50)/((1+L/KD)) [formula] where L = concentration of radioligand in the assay, and KD = affinity of the radioligand for the receptor. A scatchard plot is used todetermine the KD.

Human NK3 receptor [2] = target: T1, Human NK3 receptor; assay: NK3 receptor functional assay (antagonist effect, intracellular Ca2+, fluorimetry); assay type: cell-based; design: expressed in transfected cells; host or cells: CHO cells; details: result in words; human NK3 receptors
Experimental: (§1) Cellular antagonist effect was calculated as a %-inhibition of reference agonist response for each target.
Human NK3 receptor antagonistic activity was determined by measuring antagonistic effects of the compounds of the formula on the reduction of agonist induced intracellular [Ca^2+] concentrations in CHO cells recombinantly expressing […] using an fluorimetric detection method. The assay was adapted from Medhurst, A.D. et al. (1999), Brit. J. Pharmacol., 128: 627-636. As an agonist to induce intracellular [Ca^2+] [MePhe^7]-NKB was used as outlined in the overview table below.
(§2) For the antagonists, the apparent dissociation constants (KB ) were calculated using the modified Cheng Prusoff equation KB = (IC50)/(1 + (A/EC50A)) [formula] where A = concentration of reference agonist in the assay, and EC50A = EC50 value of the reference agonist.

NK1 receptors [3] = target: T2, NK1 receptors (Homo sapiens, UniProt P25103); assay: NK1 receptor functional assay (antagonist effect, intracellular Ca2+, fluorimetry); assay type: cell-based; design: Human astrocytoma U373MG cells do endogenously express NK1 receptors; endogenous in cells; host or cells: U373MG human astrocytoma cells; details: result in words
Experimental: as §1
Human NK1 receptor antagonistic activity assays were performed by measuring antagonistic effects of the compounds of the formula on the reduction agonist induced intracellular [Ca^2+] calcium concentrations in the human astrocytoma cell line U373MG using fluorimetric detection. Human astrocytoma U373MG cells do endogenously express NK1 receptors and were used in the assay according to Eistetter, H.R. et al. (1992), Glia, 6: 89-95 and [Sar^9,Met(O2)^11]-Substance P was used as agonistic stimulus of the NK1 receptor in the cells and assay. Relevant particulars of the assay are outlined in the table below.
as §2

NK1 receptors [4] = target: T2, NK1 receptors; assay: NK1 receptor binding assay (agonist radioligand, scintillation counting); design: that is endogenously expressing human NK1 receptors; endogenous in cells; host or cells: U373 MG human astrocytoma cells (membrane preparations); details: NK1(h) (agonist radioligand); Hill coefficient of competition curve
Excerpt: A scatchard plot is used todetermine the KD.

T2 sequence (P25103 whole entry): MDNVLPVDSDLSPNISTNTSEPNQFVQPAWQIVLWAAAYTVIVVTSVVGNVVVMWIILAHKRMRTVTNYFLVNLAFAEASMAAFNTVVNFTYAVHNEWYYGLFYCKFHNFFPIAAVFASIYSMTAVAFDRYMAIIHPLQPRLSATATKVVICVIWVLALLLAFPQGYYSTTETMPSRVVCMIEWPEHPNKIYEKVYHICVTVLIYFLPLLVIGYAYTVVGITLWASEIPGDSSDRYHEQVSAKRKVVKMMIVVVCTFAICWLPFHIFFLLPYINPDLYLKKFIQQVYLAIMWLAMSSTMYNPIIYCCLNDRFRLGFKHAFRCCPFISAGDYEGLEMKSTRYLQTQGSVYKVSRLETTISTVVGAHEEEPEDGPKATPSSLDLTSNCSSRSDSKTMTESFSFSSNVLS

| binding affinities (Human NK3 receptor [1]) | antagonistic activities (Human NK3 receptor [2]) | antagonistic activities (NK1 receptors [3]) | nH (Human NK3 receptor [1]) | nH (NK1 receptors [4]) | SMILES |
| --- | --- | --- | --- | --- | --- |
| significant | significant | significant |  |  | Cc1cc(F)ccc1-c1cc(N2C[C@H]3COCC[N+]3([O-])C[C@H]2CO)ncc1N(C)C(=O)C(C)(C)c1cc(C(F)(F)F)cc(C(F)(F)F)c1 (stereo partly drawn) [compound of formula (II), N-[6-[(7S,9aS)-7-(hydroxymethyl)-5-oxido-3,4,6,7,9,9a-hexahydro-1H-pyrazino[2,1-c][1,4]oxazin-5-ium-8-yl]-4-(4-fluoro-2-methyl-phenyl)-3-pyridyl]-2-[3,5-bis(trifluoromethyl)phenyl]-N,2-dimethyl-propanamide] |
| significant | significant | significant | 1 | 1 | CC1CN2C[C@@H](CO)N(c3cc(-c4ccc(F)cc4CO)c(N(C)C(=O)C(C)(C)c4cc(C(F)(F)F)cc(C(F)(F)F)c4)cn3)C[C@H]2CO1 (stereo partly drawn) [compound of formula (III), 2-[3,5-bis(trifluoromethyl)phenyl]-N-{4-[4-fluoro-2-(hydroxymethyl)phenyl]-6-[(7S,9aS)-7-(hydroxymethyl)-3-methylhexahydropyrazino[2,1-c][1,4]oxazin-8(1H)-yl]pyridin-3-yl}-N,2-dimethylpropanamide] |
| significant | significant | significant | 1.3 | 1.2 | Cc1cc(F)ccc1-c1cc(N2C[C@H]3COC(C)CN3C[C@H]2CO)ncc1N(C)C(=O)C(C)(C)c1cc(C(F)(F)F)cc(C(F)(F)F)c1 (stereo partly drawn) [compound of formula (IV), 2-[3,5-bis(trifluoromethyl)phenyl]-N-{4-(4-fluoro-2-methylphenyl)-6-[(7S,9aS)-7-(hydroxymethyl)-3-methylhexahydropyrazino[2,1-c][1,4]oxazin-8(1H)-yl]pyridin-3-yl}-N,2-dimethylpropanamide] |
| significant | significant | significant |  |  | CN(C(=O)C(C)(C)c1cc(C(F)(F)F)cc(C(F)(F)F)c1)c1cnc(N2C[C@H]3COCCN3C[C@H]2CO)cc1-c1ccc(F)cc1CO [compound of formula (V), 2-[3,5-bis(trifluoromethyl)phenyl]-N-{4-[4-fluoro-2-(hydroxymethyl)phenyl]-6-[(7S,9aS)-7-(hydroxymethyl)hexahydropyrazino[2,1-c][1,4]oxazin-8(1H)-yl]pyridin-3-yl}-N,2-dimethylpropanamide] |
